# Experiments:
# [1] = test system: RAW264.7; experiment: Antiinflammatory activity in mouse RAW264.7 cells assessed as inhibition of LPS-induced NO production at 10 uM; assay type: functional
# [2] = Cytotoxicity against mouse RAW264.7 cells assessed as cell proliferation at 1 uM; assay type: cell-based; conditions: read-out: Activity
# [3] = Cytotoxicity against mouse RAW264.7 cells assessed as cell proliferation at 10 uM; assay type: cell-based; conditions: read-out: Activity
# [4] = test system: RAW264.7; experiment: Antiinflammatory activity in mouse RAW264.7 cells assessed as inhibition of LPS-induced NO production at 1 uM; assay type: functional
# [5] = test system: RAW264.7; experiment: Antiinflammatory activity in mouse RAW264.7 cells assessed as inhibition of LPS-induced NO production; assay type: functional, cell-based
SMILES,inhibition at 10 µM [1] [%],viability at 1 µM [2] [%],viability at 10 µM [3] [%],inhibition at 1 µM [4] [%],IC50 [5] [µM]
COc1cc(/C=C/C(=O)N2CCCCC2=O)cc(OC)c1OC,46,107,101,1,14
COc1cc(/C=C/C(=O)N2CCCC2=O)cc(OC)c1OC,28,105,102,1,80
CCC(=O)NC(=O)/C=C/c1cc(OC)c(OC)c(OC)c1,16,97,103,-1,64
COc1cc(/C=C/C(=O)N2CCC2=O)cc(OC)c1OC,22,97,92,1,64
COc1cc(/C=C/C(=O)NC(C)=O)cc(OC)c1OC,16,104,104,-1,341
COc1cc(/C=C/C(=O)N2CCC=CC2=O)cc(OC)c1OC [PIPLARTINE],91,115,77,11,3
